Measured values reported in ChEMBL document CHEMBL1151464 (2008).
≈ marks a conversion by molar mass, not a printed value.

Key:
Type in all cases: functional
Acinetobacter baumannii [1] = assay: Antibacterial activity against Acinetobacter baumannii isolate 921 after 24 hrs by CLSI microdilution method
Pseudomonas aeruginosa [2] = assay: Antibacterial activity against Pseudomonas aeruginosa isolate 319 after 24 hrs by CLSI microdilution method
Pseudomonas aeruginosa [3] = assay: Antibacterial activity against Pseudomonas aeruginosa isolate 320 after 24 hrs by CLSI microdilution method
Pseudomonas aeruginosa [4] = assay: Antibacterial activity against Pseudomonas aeruginosa isolate 322 after 24 hrs by CLSI microdilution method
Pseudomonas aeruginosa [5] = assay: Antibacterial activity against Pseudomonas aeruginosa isolate 323 after 24 hrs by CLSI microdilution method
Pseudomonas aeruginosa [6] = assay: Antibacterial activity against Pseudomonas aeruginosa isolate 324 after 24 hrs by CLSI microdilution method
Pseudomonas aeruginosa [7] = assay: Antibacterial activity against Pseudomonas aeruginosa isolate 327 after 24 hrs by CLSI microdilution method
Pseudomonas aeruginosa [8] = assay: Antibacterial activity against Pseudomonas aeruginosa isolate 330 after 24 hrs by CLSI microdilution method
Pseudomonas aeruginosa [9] = assay: Antibacterial activity against Pseudomonas aeruginosa isolate 332 after 24 hrs by CLSI microdilution method
Pseudomonas aeruginosa [10] = assay: Antibacterial activity against Pseudomonas aeruginosa isolate 337 after 24 hrs by CLSI microdilution method
Pseudomonas aeruginosa [11] = assay: Antibacterial activity against Pseudomonas aeruginosa isolate 339 after 24 hrs by CLSI microdilution method
Pseudomonas aeruginosa [12] = assay: Antibacterial activity against Pseudomonas aeruginosa isolate 341 after 24 hrs by CLSI microdilution method
Pseudomonas aeruginosa [13] = assay: Antibacterial activity against Pseudomonas aeruginosa isolate 344 after 24 hrs by CLSI microdilution method
Pseudomonas aeruginosa [14] = assay: Antibacterial activity against Pseudomonas aeruginosa isolate 346 after 24 hrs by CLSI microdilution method
Pseudomonas aeruginosa [15] = assay: Antibacterial activity against Pseudomonas aeruginosa isolate 349 after 24 hrs by CLSI microdilution method
Pseudomonas aeruginosa [16] = assay: Antibacterial activity against Pseudomonas aeruginosa isolate 352 after 24 hrs by CLSI microdilution method
Pseudomonas aeruginosa [17] = assay: Antibacterial activity against Pseudomonas aeruginosa isolate 354 after 24 hrs by CLSI microdilution method
Pseudomonas aeruginosa [18] = assay: Antibacterial activity against Pseudomonas aeruginosa isolate 365 after 24 hrs by CLSI microdilution method
Pseudomonas aeruginosa [19] = assay: Antibacterial activity against Pseudomonas aeruginosa isolate 370 after 24 hrs by CLSI microdilution method
Pseudomonas aeruginosa [20] = assay: Antibacterial activity against Pseudomonas aeruginosa isolate 371 after 24 hrs by CLSI microdilution method
Pseudomonas aeruginosa [21] = assay: Antibacterial activity against Pseudomonas aeruginosa isolate 372 after 24 hrs by CLSI microdilution method
Pseudomonas aeruginosa [22] = assay: Antibacterial activity against Pseudomonas aeruginosa isolate 374 after 24 hrs by CLSI microdilution method
Pseudomonas aeruginosa [23] = assay: Antibacterial activity against Pseudomonas aeruginosa isolate 375 after 24 hrs by CLSI microdilution method
Pseudomonas aeruginosa [24] = assay: Antibacterial activity against Pseudomonas aeruginosa isolate 379 expressing VIM2 beta-lactamase after 24 hrs by CLSI microdilution method
Acinetobacter baumannii [25] = assay: Antibacterial activity against Acinetobacter baumannii isolate 884 after 24 hrs by CLSI microdilution method
Acinetobacter baumannii [26] = assay: Antibacterial activity against Acinetobacter baumannii isolate 885 after 24 hrs by CLSI microdilution method
Acinetobacter baumannii [27] = assay: Antibacterial activity against Acinetobacter baumannii isolate 888 after 24 hrs by CLSI microdilution method
Acinetobacter baumannii [28] = assay: Antibacterial activity against Acinetobacter baumannii isolate 889 after 24 hrs by CLSI microdilution method
Acinetobacter baumannii [29] = assay: Antibacterial activity against Acinetobacter baumannii isolate 891 after 24 hrs by CLSI microdilution method; settings: isolate 891, 24 h
Acinetobacter baumannii [30] = assay: Antibacterial activity against Acinetobacter baumannii isolate 894 after 24 hrs by CLSI microdilution method
Acinetobacter baumannii [31] = assay: Antibacterial activity against Acinetobacter baumannii isolate 896 after 24 hrs by CLSI microdilution method
Acinetobacter baumannii [32] = assay: Antibacterial activity against Acinetobacter baumannii isolate 897 after 24 hrs by CLSI microdilution method
Acinetobacter baumannii [33] = assay: Antibacterial activity against Acinetobacter baumannii isolate 898 after 24 hrs by CLSI microdilution method
Acinetobacter baumannii [34] = assay: Antibacterial activity against Acinetobacter baumannii isolate 901 after 24 hrs by CLSI microdilution method
Acinetobacter baumannii [35] = assay: Antibacterial activity against Acinetobacter baumannii isolate 902 after 24 hrs by CLSI microdilution method
Acinetobacter baumannii [36] = assay: Antibacterial activity against Acinetobacter baumannii isolate 903 after 24 hrs by CLSI microdilution method
Acinetobacter baumannii [37] = assay: Antibacterial activity against Acinetobacter baumannii isolate 904 after 24 hrs by CLSI microdilution method
Acinetobacter baumannii [38] = assay: Antibacterial activity against Acinetobacter baumannii isolate 907 after 24 hrs by CLSI microdilution method
Acinetobacter baumannii [39] = assay: Antibacterial activity against Acinetobacter baumannii isolate 910 after 24 hrs by CLSI microdilution method
Acinetobacter baumannii [40] = assay: Antibacterial activity against Acinetobacter baumannii isolate 913 after 24 hrs by CLSI microdilution method
Acinetobacter baumannii [41] = assay: Antibacterial activity against Acinetobacter baumannii isolate 915 after 24 hrs by CLSI microdilution method
Acinetobacter baumannii [42] = assay: Antibacterial activity against Acinetobacter baumannii isolate 919 after 24 hrs by CLSI microdilution method
Acinetobacter baumannii [43] = assay: Antibacterial activity against Acinetobacter baumannii isolate 924 after 24 hrs by CLSI microdilution method
Acinetobacter baumannii [44] = assay: Antibacterial activity against Acinetobacter baumannii isolate 925 after 24 hrs by CLSI microdilution method

## C[C@@H](O)[C@H]1C(=O)N2C(C(=O)O)=C(S[C@@H]3CN[C@H](C(=O)N(C)C)C3)[C@H](C)[C@H]12 [MEROPENEM]
Acinetobacter baumannii [1]; isolate 921, 24 h
  MIC: 1 µg/mL (≈ 2.61 µM)
Pseudomonas aeruginosa [2]; isolate 319, 24 h
  MIC: 2 µg/mL (≈ 5.22 µM)
Pseudomonas aeruginosa [3]; isolate 320, 24 h
  MIC: 2 µg/mL (≈ 5.22 µM)
Pseudomonas aeruginosa [4]; isolate 322, 24 h
  MIC: 2 µg/mL (≈ 5.22 µM)
Pseudomonas aeruginosa [5]; isolate 323, 24 h
  MIC: 1 µg/mL (≈ 2.61 µM)
Pseudomonas aeruginosa [6]; isolate 324, 24 h
  MIC: 0.25 µg/mL (≈ 0.652 µM)
Pseudomonas aeruginosa [7]; isolate 327, 24 h
  MIC: 2 µg/mL (≈ 5.22 µM)
Pseudomonas aeruginosa [8]; isolate 330, 24 h
  MIC: 0.5 µg/mL (≈ 1.3 µM)
Pseudomonas aeruginosa [9]; isolate 332, 24 h
  MIC: 4 µg/mL (≈ 10.4 µM)
Pseudomonas aeruginosa [10]; isolate 337, 24 h
  MIC: 1 µg/mL (≈ 2.61 µM)
Pseudomonas aeruginosa [11]; isolate 339, 24 h
  MIC: 0.5 µg/mL (≈ 1.3 µM)
Pseudomonas aeruginosa [12]; isolate 341, 24 h
  MIC: 0.5 µg/mL (≈ 1.3 µM)
Pseudomonas aeruginosa [13]; isolate 344, 24 h
  MIC: 0.5 µg/mL (≈ 1.3 µM)
Pseudomonas aeruginosa [14]; isolate 346, 24 h
  MIC: 1 µg/mL (≈ 2.61 µM)
Pseudomonas aeruginosa [15]; isolate 349, 24 h
  MIC: 2 µg/mL (≈ 5.22 µM)
Pseudomonas aeruginosa [16]; isolate 352, 24 h
  MIC: 2 µg/mL (≈ 5.22 µM)
Pseudomonas aeruginosa [17]; isolate 354, 24 h
  MIC: 0.12 µg/mL (≈ 0.313 µM)
Pseudomonas aeruginosa [18]; isolate 365, 24 h
  MIC: 1 µg/mL (≈ 2.61 µM)
Pseudomonas aeruginosa [19]; isolate 370, 24 h
  MIC: 1 µg/mL (≈ 2.61 µM)
Pseudomonas aeruginosa [20]; isolate 371, 24 h
  MIC: 16 µg/mL (≈ 41.7 µM)
Pseudomonas aeruginosa [21]; isolate 372, 24 h
  MIC: 16 µg/mL (≈ 41.7 µM)
Pseudomonas aeruginosa [22]; isolate 374, 24 h
  MIC: 0.5 µg/mL (≈ 1.3 µM)
Pseudomonas aeruginosa [23]; isolate 375, 24 h
  MIC: 0.5 µg/mL (≈ 1.3 µM)
Pseudomonas aeruginosa [24]; isolate 379, 24 h
  MIC: 256 µg/mL (≈ 668 µM)
Acinetobacter baumannii [25]; isolate 884, 24 h
  MIC: 8 µg/mL (≈ 20.9 µM)
Acinetobacter baumannii [26]; isolate 885, 24 h
  MIC: 8 µg/mL (≈ 20.9 µM)
Acinetobacter baumannii [27]; isolate 888, 24 h
  MIC: 1 µg/mL (≈ 2.61 µM)
Acinetobacter baumannii [28]; isolate 889, 24 h
  MIC: 1 µg/mL (≈ 2.61 µM)
Acinetobacter baumannii [29]
  MIC: 4 µg/mL (≈ 10.4 µM)
Acinetobacter baumannii [30]; isolate 894, 24 h
  MIC: 2 µg/mL (≈ 5.22 µM)
Acinetobacter baumannii [31]; isolate 896, 24 h
  MIC: 2 µg/mL (≈ 5.22 µM)
Acinetobacter baumannii [32]; isolate 897, 24 h
  MIC: 1 µg/mL (≈ 2.61 µM)
Acinetobacter baumannii [33]; isolate 898, 24 h
  MIC: 8 µg/mL (≈ 20.9 µM)
Acinetobacter baumannii [34]; isolate 901, 24 h
  MIC: 8 µg/mL (≈ 20.9 µM)
Acinetobacter baumannii [35]; isolate 902, 24 h
  MIC: 1 µg/mL (≈ 2.61 µM)
Acinetobacter baumannii [36]; isolate 903, 24 h
  MIC: 1 µg/mL (≈ 2.61 µM)
Acinetobacter baumannii [37]; isolate 904, 24 h
  MIC: 2 µg/mL (≈ 5.22 µM)
Acinetobacter baumannii [38]; isolate 907, 24 h
  MIC: 0.5 µg/mL (≈ 1.3 µM)
Acinetobacter baumannii [39]; isolate 910, 24 h
  MIC: 4 µg/mL (≈ 10.4 µM)
Acinetobacter baumannii [40]; isolate 913, 24 h
  MIC: 0.25 µg/mL (≈ 0.652 µM)
Acinetobacter baumannii [41]; isolate 915, 24 h
  MIC: 0.5 µg/mL (≈ 1.3 µM)
Acinetobacter baumannii [42]; isolate 919, 24 h
  MIC: 1 µg/mL (≈ 2.61 µM)
Acinetobacter baumannii [43]; isolate 924, 24 h
  MIC: 0.5 µg/mL (≈ 1.3 µM)
Acinetobacter baumannii [44]; isolate 925, 24 h
  MIC: 1 µg/mL (≈ 2.61 µM)

## COLISTIN
Acinetobacter baumannii [1]
  MIC: 1 µg/mL
Pseudomonas aeruginosa [2]
  MIC: 2 µg/mL
Pseudomonas aeruginosa [3]
  MIC: 1 µg/mL
Pseudomonas aeruginosa [4]
  MIC: 0.5 µg/mL
Pseudomonas aeruginosa [5]
  MIC: 0.25 µg/mL
Pseudomonas aeruginosa [6]
  MIC: 2 µg/mL
Pseudomonas aeruginosa [7]
  MIC: 2 µg/mL
Pseudomonas aeruginosa [8]
  MIC: 1 µg/mL
Pseudomonas aeruginosa [9]
  MIC: 0.5 µg/mL
Pseudomonas aeruginosa [10]
  MIC: 1 µg/mL
Pseudomonas aeruginosa [11]
  MIC: 1 µg/mL
Pseudomonas aeruginosa [12]
  MIC: 0.5 µg/mL
Pseudomonas aeruginosa [13]
  MIC: 0.5 µg/mL
Pseudomonas aeruginosa [14]
  MIC: 2 µg/mL
Pseudomonas aeruginosa [15]
  MIC: 1 µg/mL
Pseudomonas aeruginosa [16]
  MIC: 4 µg/mL
Pseudomonas aeruginosa [17]
  MIC: 0.5 µg/mL
Pseudomonas aeruginosa [18]
  MIC: 2 µg/mL
Pseudomonas aeruginosa [19]
  MIC: 2 µg/mL
Pseudomonas aeruginosa [20]
  MIC: 1 µg/mL
Pseudomonas aeruginosa [21]
  MIC: 1 µg/mL
Pseudomonas aeruginosa [22]
  MIC: 1 µg/mL
Pseudomonas aeruginosa [23]
  MIC: 0.5 µg/mL
Pseudomonas aeruginosa [24]
  MIC: 1 µg/mL
Acinetobacter baumannii [25]
  MIC: 2 µg/mL
Acinetobacter baumannii [26]
  MIC: 2 µg/mL
Acinetobacter baumannii [27]
  MIC: 4 µg/mL
Acinetobacter baumannii [28]
  MIC: 16 µg/mL
Acinetobacter baumannii [30]
  MIC: 1 µg/mL
Acinetobacter baumannii [31]
  MIC: 2 µg/mL
Acinetobacter baumannii [32]
  MIC: 4 µg/mL
Acinetobacter baumannii [33]
  MIC: 1 µg/mL
Acinetobacter baumannii [34]
  MIC: 8 µg/mL
Acinetobacter baumannii [35]
  MIC: 2 µg/mL
Acinetobacter baumannii [36]
  MIC: 0.25 µg/mL
Acinetobacter baumannii [37]
  MIC: 16 µg/mL
Acinetobacter baumannii [38]
  MIC: 1 µg/mL
Acinetobacter baumannii [39]
  MIC: 0.25 µg/mL
Acinetobacter baumannii [40]
  MIC: 0.25 µg/mL
Acinetobacter baumannii [41]
  MIC: 1 µg/mL
Acinetobacter baumannii [42]
  MIC: 0.5 µg/mL
Acinetobacter baumannii [43]
  MIC: 2 µg/mL
Acinetobacter baumannii [44]
  MIC: 16 µg/mL
